Reference: patent publication US11352363B1, “Spiropyrrolidine derived antiviral agents” (Enanta Pharmaceuticals, Inc., priority 2020, dated 2022)

These molecules were tested against SARS-CoV-2 3CL-protease (Severe acute respiratory syndrome coronavirus 2 (2019-nCoV) (SARS-CoV-2), UniProt P0DTD1) (assay: SARS-CoV-2 3C-like (3CL) protease fluorescence assay (FRET)). Details: not given.
Assay type: biochemical
`COc1cccc2[nH]c(C(=O)N[C@H](C(=O)N3C[C@]4(C[C@H]3C#N)C(=O)Nc3ccccc34)C(C)OC(C)(C)C)cc12` (some centres unmarked) [Compound 22] was tested, and the IC50 was 100 to 1000 nM.
Work on `CC(C)C[C@@H](C(=O)N1C[C@]2(C[C@H]1C#N)C(=O)Nc1ccccc12)N(C)C(=O)c1cc2cc(F)cc(F)c2[nH]1` [Compound 68] yielded an IC50 of less than 100 nM.

Same assay, conditions: read-out: FRET IC50
`C=CCN(C(=O)OCc1ccccc1)[C@@H](CC(C)C)C(=O)N1C[C@]2(C[C@H]1C#N)C(=O)Nc1ccccc12` [Compound 96] showed an IC50 of less than 100 nM.
In the case of `CC(C)C[C@@H](C(=O)N1C[C@]2(C[C@H]1C#N)C(=O)Nc1ccccc12)N(C)C(=O)c1ccc(F)c(Cl)c1` [Compound 63], the IC50 is reported as less than 100 nM.
With `CCN(C(=O)OCc1ccccc1)[C@@H](CC(C)C)C(=O)N1C[C@]2(C[C@H]1C#N)C(=O)Nc1ccccc12` [Compound 90] the IC50 was less than 100 nM.
`CC(C)C[C@@H](C(=O)N1C[C@]2(C[C@H]1C#N)C(=O)Nc1ccccc12)N(C)C(=O)c1ncccc1Cl` [Compound 59] gave an IC50 of less than 100 nM.
`COc1cccc2[nH]c(C(=O)N[C@@H](CC(C)C)C(=O)N3C[C@]4(C[C@H]3C=O)C(=O)N(C)c3ccccc34)cc12` [Compound 119] was tested, and the IC50 was less than 100 nM.
Molecule `CCN(C(=O)c1cc2c(F)cccc2[nH]1)[C@@H](CC(C)C)C(=O)N1C[C@]2(C[C@H]1C#N)C(=O)Nc1ccccc12` [Compound 95] has an IC50 of less than 100 nM.
With `CC(C)C[C@@H](C(=O)N1C[C@]2(C[C@H]1C#N)C(=O)Nc1ccccc12)N(C)C(=O)c1cc2c(Br)ccc(Cl)c2[nH]1` [Compound 66] the IC50 was less than 100 nM.
In the case of `CC(C)C[C@@H](C(=O)N1C[C@]2(C[C@H]1C#N)C(=O)Nc1ccccc12)N(C)C(=O)c1cc2ccc(C(C)(C)C)cc2[nH]1` [Compound 57], the IC50 is reported as less than 100 nM.
`CC(C)C[C@@H](C(=O)N1C[C@]2(C[C@H]1C#N)C(=O)Nc1ccccc12)N(C)C(=O)c1cc2cc(Cl)cc(Cl)c2[nH]1` [Compound 76] showed an IC50 of less than 100 nM.
`CC(C)C[C@@H](C(=O)N1C[C@]2(C[C@H]1C#N)C(=O)Nc1ccccc12)N(C)C(=O)c1cc2ccc(F)cc2[nH]1` [Compound 50] was tested, and the IC50 was less than 100 nM.
Work on `Cc1c(C(=O)N(C)[C@@H](CC(C)C)C(=O)N2C[C@]3(C[C@H]2C#N)C(=O)Nc2ccccc23)[nH]c2cc(F)cc(F)c12` [Compound 47] yielded an IC50 of less than 100 nM.
`COc1cccc2[nH]c(C(=O)N[C@@H](CC(C)C)C(=O)N3C[C@]4(C[C@H]3C#N)C(=O)Nc3ccccc34)cc12` [Compound 11] showed an IC50 of less than 100 nM.
In the case of `CN(C(=O)c1cc2c(F)c(F)ccc2[nH]1)[C@@H](CC(C)(C)C)C(=O)N1C[C@]2(C[C@H]1C#N)C(=O)Nc1ccccc12` [Compound 86], the IC50 is reported as less than 100 nM.
With `CC(C)C[C@@H](C(=O)N1C[C@]2(C[C@H]1C#N)C(=O)Nc1ccccc12)N(C)C(=O)c1cc2c(F)ccc(F)c2[nH]1` [Compound 71] the IC50 was less than 100 nM.
Molecule `CC(C)C[C@@H](C(=O)N1C[C@]2(C[C@H]1C#N)C(=O)Nc1ccccc12)N(C)C(=O)c1cc2cc(C(C)C)ccc2[nH]1` [Compound 84] has an IC50 of less than 100 nM.
For `CC(C)C[C@@H](C(=O)N1C[C@]2(C[C@H]1C#N)C(=O)Nc1ccccc12)N(C)C(=O)c1c(Cl)cccc1Cl` [Compound 64], the IC50 was less than 100 nM.
`COc1cccc2[nH]c(C(=O)N[C@@H](CC(C)C)C(=O)N3C[C@]4(C[C@H]3C(=O)C(=O)NC3CCCCC3)C(=O)Nc3ccccc34)cc12` [Compound 33] showed an IC50 of less than 100 nM.
Molecule `COc1cccc2[nH]c(C(=O)N[C@@H](CC(C)C)C(=O)N3C[C@]4(C[C@H]3C(=O)NS(=O)(=O)C3CC3)C(=O)Nc3ccccc34)cc12` [Compound 38] has an IC50 greater than 1000 nM.
In the case of `CN(C(=O)c1cc2c(F)cc(F)cc2[nH]1)[C@@H](CC1CC1)C(=O)N1C[C@]2(C[C@H]1C#N)C(=O)Nc1ccccc12` [Compound 115], the IC50 is reported as less than 100 nM.
With `CC(C)(C)[C@H](NC(=O)c1cc2c(F)cccc2[nH]1)C(=O)N1C[C@]2(C[C@H]1C#N)C(=O)Nc1ccccc12` [Compound 18] the IC50 was greater than 1000 nM.
`CC(C)C[C@@H](C(=O)N1C[C@]2(C[C@H]1C#N)C(=O)Nc1ccccc12)N(C)C(=O)c1cc2c(OC3CC3)cccc2[nH]1` [Compound 82] was tested, and the IC50 was less than 100 nM.
Molecule `CN(C(=O)c1cc2c(F)cc(F)cc2[nH]1)[C@@H](CC1CCCC1)C(=O)N1C[C@]2(C[C@H]1C#N)C(=O)Nc1ccccc12` [Compound 107] has an IC50 of less than 100 nM.
For `CC(C)C[C@@H](C(=O)N1C[C@]2(C[C@H]1C#N)C(=O)Nc1ccccc12)N(C)C(=O)OCc1ccccc1` [Compound 39], the IC50 was less than 100 nM.
With `CC(C)C[C@H](NC(=O)OCC1(c2ccccc2)CC1)C(=O)N1C[C@]2(C[C@H]1C#N)C(=O)Nc1ccccc12` [Compound 8] the IC50 was less than 100 nM.
`CN(C(=O)c1cnn(-c2ccccc2C(F)(F)F)c1)[C@@H](CC1CC1)C(=O)N1C[C@]2(C[C@H]1C#N)C(=O)Nc1ccccc12` [Compound 124] gave an IC50 of less than 100 nM.
With `CN(C(=O)OCc1ccccc1)[C@@H](CC1CCC1)C(=O)N1C[C@]2(C[C@H]1C#N)C(=O)Nc1ccccc12` [Compound 89] the IC50 was less than 100 nM.
`CC(C)(C)[C@H](NC(=O)OCc1ccccc1)C(=O)N1C[C@]2(C[C@H]1C#N)C(=O)Nc1ccccc12` [Compound 3] gave an IC50 greater than 1000 nM.
With `CCCN(C(=O)OCc1ccccc1)[C@@H](CC(C)C)C(=O)N1C[C@]2(C[C@H]1C#N)C(=O)Nc1ccccc12` [Compound 97] the IC50 was less than 100 nM.
With `CC(C)C[C@@H](C(=O)N1C[C@]2(C[C@H]1C#N)C(=O)Nc1ccccc12)N(C)C(=O)c1cc2c(C3CC3)cccc2[nH]1` [Compound 45] the IC50 was less than 100 nM.
`CC(C)C[C@@H](C(=O)N1C[C@]2(C[C@H]1C#N)C(=O)Nc1ccccc12)N(C)C(=O)c1cncc(C#N)c1` [Compound 60] showed an IC50 of less than 100 nM.
`COc1cccc2[nH]c(C(=O)N(C)[C@@H](CC(C)C)C(=O)N3C[C@]4(C[C@H]3C#N)C(=O)Nc3ccccc34)cc12` [Compound 42] showed an IC50 of less than 100 nM.
`CN(C(=O)c1cc2c(F)cc(F)cc2[nH]1)[C@@H](CC1CCCCC1)C(=O)N1C[C@]2(C[C@H]1C#N)C(=O)Nc1ccccc12` [Compound 111] gave an IC50 of less than 100 nM.
`CC(C)C[C@@H](C(=O)N1C[C@]2(C[C@H]1C#N)C(=O)Nc1ccccc12)N(C)C(=O)c1cc2ccccc2[nH]1` [Compound 78] showed an IC50 of less than 100 nM.
In the case of `COc1cccc2[nH]c(C(=O)N[C@H](CC(C)(C)C)C(=O)N3C[C@]4(C[C@H]3C#N)C(=O)Nc3ccccc34)cc12` [Compound 16], the IC50 is reported as 100 to 1000 nM.
`CC(C)C[C@H](NC(=O)OCc1ccccc1)C(=O)N1C[C@]2(C[C@H]1C#N)C(=O)Nc1ccccc12` [Compound 1] was tested, and the IC50 was 100 to 1000 nM.
For `CN(C(=O)c1cc2c(F)cccc2[nH]1)[C@@H](CC1CC1)C(=O)N1C[C@]2(C[C@H]1C#N)C(=O)Nc1ccccc12` [Compound 116], the IC50 was less than 100 nM.
For `COc1cccc2[nH]c(C(=O)N[C@@H](CC(C)C)C(=O)N3C[C@]4(C[C@H]3C=O)C(=O)Nc3ccccc34)cc12` [Compound 23], the IC50 was less than 100 nM.
Work on `COc1cccc2[nH]c(C(=O)N(C)[C@@H](CC(C)C)C(=O)N3C[C@]4(C[C@H]3C(=O)C(=O)NC3CCCCC3)C(=O)Nc3ccccc34)cc12` [Compound 34] yielded an IC50 greater than 1000 nM.
Work on `CC(C)C[C@@H](C(=O)N1C[C@]2(C[C@H]1C#N)C(=O)Nc1ccccc12)N(C)C(=O)c1cc2c(C#N)cccc2[nH]1` [Compound 67] yielded an IC50 of less than 100 nM.
For `CC(C)C[C@@H](C(=O)N1C[C@]2(C[C@H]1C#N)C(=O)Nc1ccccc12)N(C)C(=O)c1cc2cc(C(C)(C)C)ccc2[nH]1` [Compound 56], the IC50 was less than 100 nM.
`CN(C(=O)OCc1ccccc1)[C@@H](CC(C)(C)F)C(=O)N1C[C@]2(C[C@H]1C#N)C(=O)Nc1ccccc12` [Compound 101] showed an IC50 of less than 100 nM.
For `COc1cccc2[nH]c(C(=O)N(C)[C@@H](CCC(C)C)C(=O)N3C[C@]4(C[C@H]3C#N)C(=O)Nc3ccccc34)cc12` [Compound 105], the IC50 was less than 100 nM.
`CC(C)C[C@@H](C(=O)N1C[C@]2(C[C@H]1C#N)C(=O)Nc1ccccc12)N(C)C(=O)c1cc(F)ccc1Cl` [Compound 62] gave an IC50 of less than 100 nM.
Work on `CC(C)C[C@@H](C(=O)N1C[C@]2(C[C@H]1C#N)C(=O)Nc1ccccc12)N(C)C(=O)c1cc2c(Cl)cc(Cl)cc2[nH]1` [Compound 74] yielded an IC50 of less than 100 nM.
In the case of `CN(C(=O)c1cc2c(F)cccc2[nH]1)[C@@H](CC(C)(C)C)C(=O)N1C[C@]2(C[C@H]1C#N)C(=O)Nc1ccccc12` [Compound 87], the IC50 is reported as less than 100 nM.
Molecule `CC(C)C[C@@H](C(=O)N1C[C@]2(C[C@H]1C#N)C(=O)Nc1ccccc12)N(C)C(=O)c1cc2cc(F)c(F)cc2[nH]1` [Compound 69] has an IC50 of less than 100 nM.
`CC(C)C[C@@H](C(=O)N1C[C@]2(C[C@H]1C#N)C(=O)Nc1ccccc12)N(C)C(=O)c1cc2cc(-c3ccccc3)ccc2[nH]1` [Compound 54] was tested, and the IC50 was less than 100 nM.
`CC(C)C[C@@H](C(=O)N1C[C@]2(C[C@H]1C#N)C(=O)Nc1ccccc12)N(C)C(=O)c1cc2c(Cl)cccc2[nH]1` [Compound 65] showed an IC50 of less than 100 nM.
Molecule `CN(C(=O)OCc1ccccc1)[C@@H](CC1CC1)C(=O)N1C[C@]2(C[C@H]1C#N)C(=O)Nc1ccccc12` [Compound 102] has an IC50 of less than 100 nM.
`CN(C(=O)c1cc2c(F)cccc2[nH]1)[C@@H](CC1CCCCC1)C(=O)N1C[C@]2(C[C@H]1C#N)C(=O)Nc1ccccc12` [Compound 110] gave an IC50 of less than 100 nM.
Work on `CC(C)C[C@H](NC(=O)NCc1ccccc1)C(=O)N1C[C@]2(C[C@H]1C#N)C(=O)Nc1ccccc12` [Compound 122] yielded an IC50 of less than 100 nM.
For `CC(C)C[C@@H](C(=O)N1C[C@]2(C[C@H]1C#N)C(=O)Nc1ccccc12)N(C)C(=O)c1cc2c(OC(F)F)cccc2[nH]1` [Compound 51], the IC50 was less than 100 nM.
In the case of `COc1cccc2[nH]c(C(=O)N[C@@H](CC3CCCCC3)C(=O)N3C[C@]4(C[C@H]3C#N)C(=O)Nc3ccccc34)cc12` [Compound 13], the IC50 is reported as less than 100 nM.
`COc1cccc2[nH]c(C(=O)N(C)[C@@H](CC(C)C)C(=O)N3C[C@]4(C[C@H]3C#N)C(=O)N(C)c3ccccc34)cc12` [Compound 121] was tested, and the IC50 was less than 100 nM.
For `CC(C)C[C@@H](C(=O)N1C[C@]2(C[C@H]1C#N)C(=O)Nc1ccccc12)N(C)C(=O)c1cc2c(OC(F)(F)F)cccc2[nH]1` [Compound 49], the IC50 was less than 100 nM.
`CC(C)CC[C@@H](C(=O)N1C[C@]2(C[C@H]1C#N)C(=O)Nc1ccccc12)N(C)C(=O)OCc1ccccc1` [Compound 100] showed an IC50 of less than 100 nM.

Same assay, conditions: recombinant SARS-CoV-2 3CL-protease 10 nM, 30 min preincubation, run in duplicate; read-out: FRET IC50
Work on `COc1cc(C#N)cc2[nH]c(C(=O)N[C@@H](CC(C)C)C(=O)N3C[C@]4(C[C@H]3C#N)C(=O)Nc3ccccc34)cc12` [Compound 26] yielded an IC50 of 100 to 1000 nM.
